ChEMBL document CHEMBL1151127, “Studies of Swedish Marine Organisms, Part X. Biologically Active Compounds from the Marine Sponge Geodia baretti” (1988)

Columns and labels:
[1] = tested on: Ileum; assay: Inhibition of electrically-stimulated contraction in guinea pig ileum at 15 ug/ml; format: functional; settings: Cavia porcellus
[2] = tested on: Ileum; assay: Contractile activity in guinea pig ileum at 15 ug/ml relative to histamine; format: functional, Cavia porcellus
[3] = tested on: Ileum; assay: Contractile activity in guinea pig ileum at 1200 ug/ml relative to histamine; format: functional, Cavia porcellus
[4] = tested on: Ileum; assay: Inhibition of electrically-stimulated contraction in guinea pig ileum at 1200 ug/ml; format: functional; settings: Cavia porcellus
[5] = tested on: Ileum; assay: Contractile activity in guinea pig ileum at 50 ug/ml relative to histamine; format: functional, Cavia porcellus
[6] = tested on: Ileum; assay: Inhibition of electrically-stimulated contraction in guinea pig ileum at 50 ug/ml; format: functional; settings: Cavia porcellus
[7] = tested on: Ileum; assay: Contractile activity in guinea pig ileum at 232 ug/ml relative to histamine; format: functional, Cavia porcellus
[8] = tested on: Ileum; assay: Inhibition of electrically-stimulated contraction in guinea pig ileum at 232 ug/ml; format: functional; settings: Cavia porcellus
[9] = tested on: Ileum; assay: Contractile activity in guinea pig ileum at 200 ug/ml relative to histamine; format: functional, Cavia porcellus
[10] = tested on: Ileum; assay: Inhibition of electrically-stimulated contraction in guinea pig ileum at 200 ug/ml; format: functional; settings: Cavia porcellus
[11] = tested on: Ileum; assay: Inhibition of electrically-stimulated contraction in guinea pig ileum at 67 ug/ml; format: functional; settings: Cavia porcellus
[12] = tested on: Ileum; assay: Contractile activity in guinea pig ileum at 67 ug/ml relative to histamine; format: functional, Cavia porcellus

In the case of `Nc1ncnc2c1ncn2[C@@H]1O[C@H](CO)[C@@H](O)[C@H]1O` [ADENOSINE], the inhibition at 15 µg/mL [1] was 85% and the Activity [2] was 0%.

In the case of `O=c1ccn([C@@H]2O[C@H](CO)[C@@H](O)[C@H]2O)c(=O)[nH]1` [URIDINE], the Activity [3] was 0% and the inhibition at 1200 µg/mL [4] was 83%.

`Cn1c(=O)ccn([C@H]2C[C@H](O)[C@@H](CO)O2)c1=O` was tested, and the Activity [5] was 0% and the inhibition at 50 µg/mL [6] was 0%.

In the case of `Nc1ccn([C@H]2C[C@H](O)[C@@H](CO)O2)c(=O)n1` [DOXECITINE], the Activity [3] was 0% and the inhibition at 1200 µg/mL [4] was 27%.

In the case of `N=C(N)NCCC[C@@H]1NC(=O)/C(=C/c2c[nH]c3cc(Br)ccc23)NC1=O` [BARETTIN], the inhibition at 15 µg/mL [1] was 62% and the Activity [2] was 0%.

`Cn1c(=N)ccn([C@H]2C[C@H](O)[C@@H](CO)O2)c1=O` gave an Activity [7] of 60% and an inhibition at 232 µg/mL [8] of 0%.

For `O=c1[nH]cnc2c1ncn2[C@@H]1O[C@H](CO)[C@@H](O)[C@H]1O` [INOSINE], the Activity [9] was 0% and the inhibition at 200 µg/mL [10] was 23%.

`Cn1c(=N)ccn([C@@H]2O[C@H](CO)[C@@H](O)[C@H]2O)c1=O` was tested, and the inhibition at 67 µg/mL [11] was 0% and the Activity [12] was 60%.

Compound `Nc1ccn([C@@H]2O[C@H](CO)[C@@H](O)[C@H]2O)c(=O)n1` [CYTIDINE] has an Activity [3] of 0% and an inhibition at 1200 µg/mL [4] of 0%.
